Assay results published in patent publication US20210130308A1, “MODULATORS OF EUKARYOTIC INITIATION FACTOR 2” (Denali Therapeutics Inc., priority 2018, published 2021).
pIC50: −log10 of the molar value. Like-named read-outs stand apart in the source and are kept apart here.

System: ATF4 translation (ISR pathway activation)
Test: ATF4 Nano Luciferase reporter integrated stress response (ISR) assay in H4 ATF4-NLuc (clone 17) cells
Assay type: cell-based, human
Description: Cellular stress leads to activation of the integrated stress response pathway through one of four eukaryotic initiation factor 2α kinases and halts global translation, while allowing for the translation of select transcripts like ATF4 (activating transcription factor 4) that are important for the response to cellular stress. During normal conditions, small open reading frames (ORFs) in the 5′ UTR of ATF4 occupy the ribosome and prevent translation of the coding sequence of ATF4. During stress conditions however, the ribosome scans past these upstream ORFs and preferentially begins translation at the coding sequence of ATF4. In this way, the translation, and thus protein level of ATF4 is a readout of ISR pathway activation. Thus, a fusion of the uORFs and the beginning of the coding sequence of ATF to a common cellular reporter like nano-luciferase allows for a sensitive and high-throughput readout of ISR pathway activity.
Compounds as provided herein were tested in the following assay. The ATF4 Nano Luciferase reporter was constructed by fusing the human full length 5′ untranslated region (5′-UTR) and a small portion of the coding sequence of the ATF4 gene upstream of the Nano Luciferase (NLuc) coding sequence lacking it's start codon. Specifically, nucleotides +1 through +364 (relative to the transcriptional start site) of ATF4 transcript variant 2 (NCBI NM_182810.2) flanked 5′ by EcoRI and 3′ by BamHI restriction enzyme sites were synthesized and cloned into the EcoRI/BamHI cloning sites of pLVX-EF1a-IRES-Puro lentivirus vector (Clontech). […]. H4 cells were selected with […] Puromycin, and clonal cell lines generated by limiting dilution. We utilized this cell line to generate an integrated stress response (ISR) assay to evaluate the activity of ISR pathway inhibitors via luminescence readout. The H4 ATF4-NLuc (clone 17) cell line is plated at a density of […] in 96-well or 384-well respectively in DMEM+10% fetal bovine serum. 24-hours later test compounds diluted in dimethyl sulfoxide (DMSO) are added for 30 minutes at 37 degree Celsius, followed by ISR pathway activation with 50 um sodium arsenite aqueous solution for 6 additional hours. Nano Glo luciferase reagent (N1150, Promega) is added according to manufacturer instructions and the luminescence signal (corresponding to the level of ATF4 translation and thus ISR pathway activation) is read with a standard plate reader with luminescence detection capabilities.
In the table below, activity of the tested compounds is provided in Table 3 as follows: +++=IC50<1 μM; ++=IC50 1-10 μM; +=IC50>10 μM.

[1] = Homo sapiens, 0.5 h, H4 ATF4-NLuc (clone 17) cells, compounds 30 minutes at 37 degree Celsius, then 50 um sodium arsenite for 6 additional hours, luminescence readout, read-out: IC50
[2] = H4 ATF4-NLuc (clone 17) cells, compounds 30 minutes at 37 degree Celsius, then 50 um sodium arsenite for 6 additional hours, luminescence readout, read-out: IC50

Row | SMILES | pIC50 [1] | also measured
1 | N#CC1CC(OCC(=O)NC23CC(NC(=O)COc4ccc(Cl)c(F)c4)(C2)C3)C1 (stereo not drawn) [Example 7, 2-(4-chloro-3-fluorophenoxy)-N-(3-(2-(3-cyanocyclobutoxy)acetamido)bicyclo[1.1.1]pentan-1-yl)acetamide] | > 6.00 | 
2 | O=C(COc1ccc(Cl)c(F)c1)NC1CC(OCCOC2CC(OC(F)(F)F)C2)C1 (single isomer, unassigned) [42 (isomer 1), 2-(4-chloro-3-fluoro-phenoxy)-N-[3-[2-[3-cis-(trifluoromethoxy)cyclobutoxy]ethoxy]-cis-cyclobutyl]acetamide] | > 6.00 | 
3 | O=C(COc1ccc(Cl)c(F)c1)NC1CCN(CCOC2CC(OC(F)(F)F)C2)CC1(F)F (stereo not drawn) [Example 47, 2-(4-chloro-3-fluoro-phenoxy)-N-[3,3-difluoro-1-[2-[3-cis-(trifluoromethoxy)cyclobutoxy]ethyl]-4-piperidyl]acetamide] | > 6.00 | 
4 | O=C(COc1ccc(Cl)c(F)c1)NC12CC(NC(=O)COC3CC(F)C3)(C1)C2 (stereo not drawn) [Example 9] | > 6.00 | 
5 | O=C(COC1CC(OC(F)(F)F)C1)NC12CC(NC(=O)c3ccc4c(F)c(F)ccc4n3)(C1)C2 (stereo not drawn) [Example 68, 5,6-difluoro-N-(3-(2-(3-cis-(trifluoromethoxy)cyclobutoxy)acetamido)bicyclo[1.1.1]pentan-1-yl)quinoline-2-carboxamide] | > 6.00 | 
6 | O=C(COc1ccc(Cl)c(F)c1)NC1CC2(C1)CC(c1nnc(C3CC(OC(F)(F)F)C3)o1)C2 (stereo not drawn) [Example 33, 2-(4-chloro-3-fluoro-phenoxy)-N46-[5-[3-cis-(trifluoromethoxy)cyclobutyl]-1,3,4-oxadiazol-2-yl]spiro[3.3]heptan-2-yl)acetamide] | > 6.00 | 
7 | O=C(COc1ccc(Cl)c(F)c1)NC1CC2(C1)CN(C(=O)COC1CC(OC(F)(F)F)C1)C2 (stereo not drawn) [Example 21, 2-(4-chloro-3-fluoro-phenoxy)-N-[2-[2-[3-cis-(trifluoromethoxy)cyclobutoxy]acetyl]-2-azaspiro[3.3]heptan-6-yl]acetamide] | > 6.00 | 
8 | O=C(COc1ccc(Cl)c(F)c1)NC1CC2(C1)CN(C(=O)COC1CC(C(F)(F)F)C1)C2 (stereo not drawn) [Example 17, 2-(4-chloro-3-fluoro-phenoxy)-N-[2-[2-[3-(trifluoromethyl)cyclobutoxy]acetyl]-2-azaspiro[3.3]heptan-6-yl]acetamide] | > 6.00 | 
9 | CC(C)OC1CC(OCC(=O)NC23CC(NC(=O)c4ccc5cc(C(F)(F)F)ccc5n4)(C2)C3)C1 (stereo not drawn) [Example 70, N-(3-(2-(3-cis-isopropoxycyclobutoxy)acetamido)bicyclo[1.1.1]pentan-1-yl)-6-(trifluoromethyl)quinoline-2-carboxamide] | > 6.00 | 
10 | O=C(COc1ccc(Cl)c(F)c1)NC1CCN(c2cnn(C3CC(OC(F)(F)F)C3)c2)CC1 (stereo not drawn) [Example 46, 2-(4-chloro-3-fluorophenoxy)-N-(1-(1-(3-cis-(trifluoromethoxy)cyclobutyl)-1H-pyrazol-4-yl)piperidin-4-yl)acetamide] | > 6.00 | 
11 | O=C(COc1ccc(Cl)c(F)c1)NC12CC(NC(=O)COC3CC(C(F)(F)F)C3)(C1)C2 (single isomer, unassigned) [12 (second eluting isomer), 2-(4-chloro-3-fluorophenoxy)-N-(3-(2-(3-(trifluoromethyl)cyclobutoxy)acetamido)bicyclo[1.1.1]pentan-1-yl)acetamide] |  | pIC50 [2]: > 6.00
12 | O=C(COC1CC(OC(F)(F)F)C1)NC1CC2(C1)CC(c1nnc(C3CC(OC(F)(F)F)C3)o1)C2 (stereo not drawn) [Example 32, 2-[3-cis-(trifluoromethoxy)cyclobutoxy]-N-[6-[5-[3-cis-(trifluoromethoxy)cyclobutyl]-1,3,4-oxadiazol-2-yl]spiro[3.3]heptan-2-yl]acetamide] | > 6.00 | 
13 | O=C(COc1ccc(C(F)(F)F)cc1)NC12CC(N3CCN(C4CC(OC(F)(F)F)C4)C3=O)(C1)C2 (stereo not drawn) [Example 74] | > 6.00 | 
14 | O=C(COc1ccc(Cl)c(F)c1)NC12CC(NC(=O)COC3CC(C(F)F)C3)(C1)C2 (stereo not drawn) [Example 38, 2-(4-chloro-3-fluoro-phenoxy)-N-[3-[[2-[3-cis-(difluoromethyl)cyclobutoxy]acetyl]amino]-1-bicyclo[1.1.1]pentanyl]acetamide] | > 6.00 | 
15 | O=C(COC1CC(OC(F)(F)F)C1)N[C@H]1CC[C@H](c2nnc(C3CC(OC(F)(F)F)C3)o2)CC1 (stereo partly drawn) [Example 30, 2-[3-cis-(trifluoromethoxy)cyclobutoxy]-N-[4-[5-[3-cis-(trifluoromethoxy)cyclobutyl]-1,3,4-oxadiazol-2-yl]cyclohexyl]acetamide] | > 6.00 | 
16 | O=C(COc1ccc(Cl)cc1)NC12CC(NC(=O)COC3CC(C(F)(F)F)C3)(C1)C2 (single isomer, unassigned) [3 (second eluting isomer), 2-(4-chlorophenoxy)-N-(3-(2-(3-(trifluoromethyl)cyclobutoxy)acetamido)bicyclo[1.1.1]pentan-1-yl)acetamide] |  | pIC50 [2]: > 6.00
17 | O=C(COC1CC(F)C1)NC12CC(NC(=O)c3ccc4cc(C(F)(F)F)ccc4n3)(C1)C2 (stereo not drawn) [Example 53, N-[1-[[2-(3-trans-fluorocyclobutoxy)acetyl]amino]-3-bicyclo[1.1.1]pentanyl]-6-(trifluoromethyl)quinoline-2-carboxamide] | > 6.00 | 
18 | COC1CC(OCC(=O)NC23CC(NC(=O)COc4ccc(Cl)c(F)c4)(C2)C3)C1 (stereo not drawn) [Example 35, 2-(4-chloro-3-fluoro-phenoxy)-N-[3-[[2-(3-cis-methoxycyclobutoxy)acetyl]amino]-1-bicyclo[1.1.1]pentanyl]acetamide] | > 6.00 | 
19 | CC1(C#N)CC(OCC(=O)NC23CC(NC(=O)COc4ccc(Cl)c(F)c4)(C2)C3)C1 (stereo not drawn) [Example 11, 2-(4-chloro-3-fluorophenoxy)-N-(3-(2-(3-cyano-3-methylcyclobutoxy)acetamido)bicyclo[1.1.1]pentan-1-yl)acetamide] | > 6.00 | 
20 | O=C(COC1CC(OC(F)(F)F)C1)NC12CC(NC(=O)[C@H]3CCc4cc(C(F)(F)F)ccc4O3)(C1)C2 (single isomer, unassigned) [Example 72 (first eluting isomer), N-(3-(2-(3-cis-(trifluoromethoxy)cyclobutoxy)acetamido)bicyclo[1.1.1]pentan-1-yl)-6-(trifluoromethyl)chroman-2-carboxamide] | > 6.00 | 
21 | O=C(COC1CC(OC(F)(F)F)C1)NC12CC(NC(=O)c3ccc4cc(F)ccc4n3)(C1)C2 (stereo not drawn) [Example 66, 6-fluoro-N-[1-[[2-[3-cis-(trifluoromethoxy)cyclobutoxy]acetyl]amino]-3-bicyclo[1.1.1]pentanyl]quinoline-2-carboxamide] | > 6.00 | 
22 | O=C(COc1ccc(Cl)cc1)NC12CC(NC(=O)COC3CC4(CCC4)C3)(C1)C2 [Example 4, 2-(4-chlorophenoxy)-N-(3-(2-(spiro[3.3]heptan-2-yloxy)acetamido)bicyclo[1.1.1]pentan-1-yl)acetamide] | > 6.00 | 
23 | CO[C@@H]1CN(CCOC2CC(OC(F)(F)F)C2)CCC1NC(=O)COc1ccc(Cl)c(F)c1 (stereo partly drawn) [Example 49, 2-(4-chloro-3-fluoro-phenoxy)-N-[trans-3-methoxy-1-[2-[3-cis-(trifluoromethoxy)cyclobutoxy]ethyl]-4-piperidyl]acetamide] | > 6.00 | 
24 | O=C(COc1ccc(Cl)c(F)c1)NC1C[C@H]2COC[C@@H](C1)N2c1cnn(C2CC(OC(F)(F)F)C2)c1 (stereo partly drawn) [Example 50, 2-(4-chloro-3-fluoro-phenoxy)-N-[(1S,5R,7r)-9-[1-[3-cis-(trifluoromethoxy)cyclobutyl]pyrazol-4-yl]-3-oxa-9-azabicyclo[3.3.1]nonan-7-yl]acetamide] |  | pIC50 (Homo sapiens, 0.5 h): > 6.00
25 | N#CC1CC(OCC(=O)NC23CC(NC(=O)COc4ccc(Cl)cc4)(C2)C3)C1 (stereo not drawn) [Example 31, 2-(4-chlorophenoxy)-N-[3-[[2-(3-cis-cyanocyclobutoxy)acetyl]amino]-1-bicyclo[1.1.1]pentanyl]acetamide] |  | pIC50 [2]: > 6.00
26 | O=C(COc1ccc(Cl)c(F)c1)N[C@H]1CC[C@H](c2nnc(C3CC(OC(F)(F)F)C3)o2)CC1 (stereo partly drawn) [Example 28, 2-(4-chloro-3-fluoro-phenoxy)-N-[4-[5-[3-cis-(trifluoromethoxy)cyclobutyl]-1,3,4-oxadiazol-2-yl]cyclohexyl]acetamide] | > 6.00 | 
27 | O=C(COC1CCC1)NC12CC(NC(=O)c3ccc4cc(Cl)ccc4n3)(C1)C2 [Example 65, 6-chloro-N-[1-[[2-(cyclobutoxy)acetyl]amino]-3-bicyclo[1.1.1]pentanyl]quinoline-2-carboxamide] | > 6.00 | 
